In one experiment the test system is Sarcina lutea. The experiment in a line: Standard agar diffusion (12.5 cm disc) test, Sarcina lutea. The following applies: for zone of inhibition at 1000 µg/mL: Micrococcus luteus. It is filed as cell-based. The method, then: (§1) When tested on a standard agar diffusion (12.5 cm disc) test at a concentration of 1 mg/ml compound (45) gave the following zones of inhibition in mm:
(§2) The antibacterial activity of compounds (46), (47), (48), (49) and (50) on a standard agar diffusion (12.5 cm disc) test at a concentration of 1 mg/ml is shown in the following table: […]
(In general: Agar diffusion results depend on both activity and mobility in agar.)

The next experiment deals with Staphylococcus aureus. The experiment in a line: Standard agar diffusion (12.5 cm disc) test, Staphylococcus aureus. It is filed as cell-based. The following applies: for zone of inhibition at 1000 µg/mL: Staphylococcus aureus. On the procedure: as §1, §2
The test system of experiment [1] is S. aureus. The experiment in a line: Standard dipped disc agar diffusion assay, S. aureus. It is filed as cell-based. The following applies: Staphylococcus aureus; 1 mg/ml, 0.5 in. disc. The source says:
In vitro antibacterial testing data, as measured by standard dipped disc agar diffusion assays and Minimum Inhibitory Concentration (MIC) determinations are as follows: […]

Experiment [2] deals with S. lutea. Nature of the experiment: Standard dipped disc agar diffusion assay, S. lutea. It is filed as cell-based. The settings on record: Micrococcus luteus. On the procedure: In vitro antibacterial testing data, as measured by standard dipped disc agar diffusion assays and Minimum Inhibitory Concentration (MIC) determinations are as follows:
A 0.5 inch disc dipped into a methanol solution of chloride (6b) at a concentration of 1 mg/ml gave a zone of inhibition of 30 mm when spotted on an agar tray seeded with S. lutea.

Experiment [3] relates to S. aureus. Nature of the experiment: S. aureus SQ-Mouse CD50. It is filed as in vivo. The settings on record: Staphylococcus aureus, sc.
The test system of a further experiment is C. perfringens. The settings on record: cited from earlier work.
For experiment [4], the system named is S. lutea. The settings on record: cited from earlier work.
The next experiment has as its system Mycobacterium avium. The following applies: cited from earlier work.
A further experiment concerns K. pneumoniae. The following applies: cited from earlier work.
In another experiment the test system is B. fragilis. The settings on record: cited from earlier work.
[5] abbreviates: read-out: Agar Diffusion zone, S. lutea.

Like-named read-outs stand apart in the source and are kept apart here.

Consider `COC1CC2C=CC3C4OC2(C(C)=CC(C)C(C(C)=NNC(N)=O)OC1=O)C3C(O)C(C)C4OC(=O)c1ccc[nH]1` (stereo not shown) [Compound 48, 18-Deoxy-18-semicarbazononargenicin A1], for which the zone of inhibition at 1000 µg/mL in the experiment on Sarcina lutea (read-out: Zone size, S. lutea) turned out to be 35 mm; in the experiment with Staphylococcus aureus (read-out: Zone size, S. aureus), 28 mm.

The ED50 is the dose at which the effect has come halfway, by size or by number of responders. Low values mean an effect at a small dose, high ones a need for a large dose. In the case of `CCC1OC(=O)C(OC)CC2C=CC3C4OC2(C(C)=CC1C)C3C(O)C(C)C4OC(=O)c1ccc[nH]1` (stereo not shown) [Compound 32, 18-Deoxynargenicin A1], the figures for the zone of inhibition at 1000 µg/mL in the experiment on S. aureus [1] and with S. lutea [2] (setting [5]) were 29 mm and 32 mm, respectively. The ED50 with S. aureus [3] is more than 100 mg/kg.

For `CON=C(C)C1OC(=O)C(OC)CC2C=CC3C4OC2(C(C)=CC1C)C3C(O)C(C)C4OC(=O)c1ccc[nH]1` (single isomer, unassigned; isomer a) [Compound 49, 18-Deoxy-18-methoximinonargenicin A1, Isomer A], the zone of inhibition at 1000 µg/mL in the experiment with Sarcina lutea (1 mg/ml, 12.5 cm disc, table 6, read-out: Zone size, S. lutea) came out at 35 mm; in the experiment with Staphylococcus aureus (1 mg/ml, 12.5 cm disc, table 6, read-out: Zone size, S. aureus), 30 mm.

With `COC1CC2C=CC3C4OC2(C(C)=CC(C)C(C(C)Cl)OC1=O)C3C(O)C(C)C4OC(=O)c1ccc[nH]1` (stereo not shown) [Compound 24, 18-Chloro-18-deoxynargenicin A1], the zone of inhibition at 1000 µg/mL in the experiment on S. aureus [1] was determined as 29 mm; in the experiment with S. lutea [2] (setting [5]) it was 31 mm. Further, the ED50 with S. aureus [3] stood at 107 mg/kg.

With `COC1CC2C=CC3C4OC2(C(C)=CC(C)C(C(C)O)OC1=O)C3C(O)C(C)C4OC(=O)c1ccc[nH]1` (stereo not shown) [Compound 45, 18-Epinargenicin A1], the zone of inhibition at 1000 µg/mL came out at 35 mm with Sarcina lutea (read-out: zones of inhibition, Sarcina lutea) and 26 mm with Staphylococcus aureus (read-out: zones of inhibition, Staphylococcus aureus).

Consider `COC1CC2C=CC3C4OC2(C(C)=CC(C)C(C(C)=NO)OC1=O)C3C(O)C(C)C4OC(=O)c1ccc[nH]1` (single isomer, unassigned; isomer a) [Compound 46, 18-Deoxy-18-oximinonargenicin A1, Isomer A], for which the zone of inhibition at 1000 µg/mL with Sarcina lutea (read-out: Zone size, S. lutea) worked out at 37 mm; in the experiment with Staphylococcus aureus (read-out: Zone size, S. aureus), 30 mm.

Regarding `CON=C(C)C1OC(=O)C(OC)CC2C=CC3C4OC2(C(C)=CC1C)C3C(O)C(C)C4OC(=O)c1ccc[nH]1` (single isomer, unassigned; isomer b) [Compound 50, 18-Deoxy-18-methoximinonargenicin A1, Isomer B], the “Zone size, S. lutea” value in the experiment with Sarcina lutea (1 mg/ml, 12.5 cm disc, table 6) worked out at 35 mm. Moreover, the “Zone size, S. aureus” value with Staphylococcus aureus (1 mg/ml, 12.5 cm disc, table 6) was 30 mm.

Take `COC1CC2C=CC3C4OC2(C(C)=CC(C)C(C(C)=NO)OC1=O)C3C(O)C(C)C4OC(=O)c1ccc[nH]1` (single isomer, unassigned; isomer b) [Compound 47, 18-Deoxy-18-oximinonargenicin A1, Isomer B]: the “Zone size, S. lutea” value in the experiment with Sarcina lutea (1 mg/ml, 12.5 cm disc, table 6) was determined as 37 mm. For the same molecule, in the experiment on Staphylococcus aureus (1 mg/ml, 12.5 cm disc, table 6), the “Zone size, S. aureus” value turned out to be 30 mm.

For `COC1CC2C=CC3C4OC2(C(C)=CC(C)C(C(C)=O)OC1=O)C3C(O)C(C)C4OC(=O)c1ccc[nH]1` (stereo not shown) [Compound 25, 18-Deoxy-18-oxonargenicin A1], the zone of inhibition at 1000 µg/mL in the experiment with S. aureus [1] is 35 mm; with S. lutea [2] (setting [5]) it was 41 mm. Further, the ED50 in the experiment on S. aureus [3] was found to be 152 mg/kg.

In the experiment on S. aureus [3], `COC1CC2C=CC3C4OC2(C(C)=CC(C)C(C(C)O)OC1=O)C3C(O)C(C)C4OC(=O)c1ccc[nH]1` (stereo not shown) [Nargenicin A1, nargenicin A1, reference compound] returned a median effective dose (ED50) of 17 to 20 mg/kg.

For the molecule `COC1CC2C=CC3C4OC2(C(C)=CC(C)C(C(C)N=[N+]=[N-])OC1=O)C3C(O)C(C)C4OC(=O)c1ccc[nH]1` (stereo not shown) [Compound 29, 18-Azido-18-deoxynargenicin A1], the zone of inhibition at 1000 µg/mL turned out to be 26 mm with S. aureus [1] and 33 mm in the experiment on S. lutea [2] (setting [5]).

As to `COC1CC2C=CC3C4OC2(C(C)=CC(C)C(C(C)Cl)OC1=O)C3C(O)C(C)C4O` (stereo not shown) [Compound 35, 18-Chloro-18-deoxynodusmicin], the zone of inhibition at 1000 µg/mL with S. lutea [2] (1 mg/ml, 0.5 in. disc, read-out: Agar Diffusion zone, S. lutea) was determined as 30 mm; with S. lutea [2] (0.5 inch disc dipped into methanol solution, 1 mg/ml, read-out: zone of inhibition, S. lutea) it was 30 mm.

As to `COC1CC2C=CC3C4OC2(C(C)=CC(C)C(C(C)O)OC1=O)C3C(O)C(C)C4O` (single isomer, unassigned) [nodusmicin], the “activity against C. perfringens” value with C. perfringens is “active”. For the same molecule, the “activity against S. lutea” value with S. lutea [4] is listed as “active”. Further, the “activity against Mycobacterium avium” value with Mycobacterium avium is given as “active”. For the same molecule, the “activity against K. pneumoniae” value in the experiment with K. pneumoniae is recorded as “active”. In the experiment on B. fragilis, the “activity against B. fragilis” value is listed as “active”.

Source of the values: US4448970A, “Nargenicin derivatives” (The Upjohn Company, priority 1981, dated 1984).
